Drawing on the supplement of paper PMC11061612, this text covers Bliss excess for six compounds.

Assay in all cases: Bliss excess, mean over the matrix (fraction); higher = more synergy
Assay [1] has as its system BFTC-909 (Kidney Carcinoma). In a few lines:
(§1)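 Bliss excess equals the observed combination effect minus the expected value EA + EB − EA·EB, where EA and EB are the effects of each agent alone. Combination Emax is the second-highest inhibition within the matrix. Inhibition was scaled from CellTiter-Glo 2.0 luminescence, with 0 set by vehicle wells and 1 by blank wells, after 72 hours of two-drug dosing of cells plated in 1536-well plates.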

In assay [2] the test system is CAL-33 (Oral Cavity Carcinoma). In a few lines:
as §1

Assay [3] relates to Detroit562 (Head and Neck Carcinoma). An outline of the steps: as §1
Assay [4] concerns ESS-1 (Other Solid Carcinomas). An outline of the steps:
as §1

For assay [5], the system named is FTC-133 (Thyroid Gland Carcinoma). An outline of the steps:
as §1

Assay [6] concerns KMRC-20 (Kidney Carcinoma). An outline of the steps: as §1
In the next assay the test system is KS-1 (Glioblastoma). An outline of the steps: as §1
The subject of assay [7] is KYAE-1 (Esophageal Adenocarcinoma). In a few lines: as §1
A further assay deals with LOXIMVI (Melanoma). An outline of the steps:
as §1

The subject of assay [8] is MHH-CALL-2 (B-Lymphoblastic Leukemia). In a few lines: as §1
The test system of assay [9] is NCI-H1568 (Lung Adenocarcinoma). In a few lines:
as §1

Assay [10] concerns NUGC-4 (Gastric Carcinoma). In a few lines: as §1
In assay [11] the test system is OE21 (Esophageal Squamous Cell Carcinoma). An outline of the steps: as §1
Assay [12] concerns OVCAR-5 (Ovarian Carcinoma). An outline of the steps: as §1
Assay [13] relates to SAS (Oral Cavity Carcinoma). In a few lines: as §1
Assay [14] has as its system SNU-16 (Gastric Carcinoma). An outline of the steps: as §1
The test system of assay [15] is SW1710 (Bladder Carcinoma). In a few lines:
as §1

For assay [16], the system named is TGBC1TKB (Biliary Tract Carcinoma). An outline of the steps:
as §1

Assay [17] concerns WSU-NHL (B-Cell Non-Hodgkin's Lymphoma). An outline of the steps:
as §1

For assay [18], the system named is YAPC (Pancreatic Carcinoma). In a few lines:
as §1

Structures are written as SMILES.

Consider `CC1(C)CCC(CN2CCN(c3ccc(C(=O)NS(=O)(=O)c4ccc(NCC5CCOCC5)c([N+](=O)[O-])c4)c(Oc4cnc5[nH]ccc5c4)c3)CC2)=C(c2ccc(Cl)cc2)C1` [Venetoclax] + CN(C)CCCOc1ccc(-c2ccc3ncc4c(c3c2)n(C2CCOCC2)c(=O)n4C)cn1 [AZD0156] (first compound max 1 µM, 7x7, partner max 1 µM), for which the Bliss excess in assay [1] is 0.0072; in assay [2] it was -0.0064; in assay [3] it was -0.0214; in [4], -0.0515; in assay [5] it was 0.0019; in [6], -0.0023. For the same compound, the Bliss excess is -0.007 in the assay with KS-1 (Glioblastoma); -0.0166 in [7]; 0.0539 in the assay on LOXIMVI (Melanoma); 0.0128 in [8]; -0.0166 in assay [9]; -0.0644 in assay [10]. Further, the Bliss excess is -0.0165 in assay [11]; -0.0195 in assay [12]; -0.033 in [13]; -0.0015 in assay [14]; -0.0264 in assay [15]; -0.0186 in assay [16]. In addition, the results for the Bliss excess in [17] and in [18] were -0.0402 and -0.02, respectively.
For the compound `CC1(C)CCC(CN2CCN(c3ccc(C(=O)NS(=O)(=O)c4ccc(NCC5CCOCC5)c([N+](=O)[O-])c4)c(Oc4cnc5[nH]ccc5c4)c3)CC2)=C(c2ccc(Cl)cc2)C1` [Venetoclax] + COc1cc(Nc2ncc3c(n2)-c2ccc(Cl)cc2C(c2c(F)cccc2OC)=NC3)ccc1C(=O)O [Alisertib] (first compound max 1 µM, 7x7, partner max 10 µM), the Bliss excess in assay [1] is 0.0116; in assay [2], -0.0356; in assay [3] it was -0.043; in assay [4], 0.0748; in [5], 0.0138; in assay [6] it was 0.0226. The Bliss excess in the assay with KS-1 (Glioblastoma) is 0.0145; in [7] it was -0.119; with LOXIMVI (Melanoma), -0.0332; in [8] it was 0.165; in assay [9], -0.0418; in [10], -0.0557. Besides, the Bliss excess in [11] is 0.0433; in assay [12], -0.0703; in [13], -0.0842; in assay [14], -0.052; in [15], -0.0425; in assay [16], -0.0367. Further, the Bliss excess is -0.0521 in assay [17] and -0.0354 in assay [18].
Consider `CC1(C)CCC(CN2CCN(c3ccc(C(=O)NS(=O)(=O)c4ccc(NCC5CCOCC5)c([N+](=O)[O-])c4)c(Oc4cnc5[nH]ccc5c4)c3)CC2)=C(c2ccc(Cl)cc2)C1` [Venetoclax] + C[C@@H]1COCCN1C2=NC(=NC(=C2)C3(CC3)[S@](=N)(=O)C)C4=C5C=CNC5=NC=C4 [AZD6738] (first compound max 1 µM, 7x7, partner max 10 µM), for which the Bliss excess was -0.0384 in [1]; -0.0489 in assay [2]; -0.0505 in assay [3]; 0.0147 in assay [4]; -0.0014 in assay [5]; -0.0047 in assay [6]. Further, the Bliss excess in the assay on KS-1 (Glioblastoma) is -0.0368; in assay [7] it was -0.0387; with LOXIMVI (Melanoma) it was -0.011; in [8], -0.0357; in assay [9] it was -0.0156; in assay [10], -0.011. Moreover, the Bliss excess is -0.0357 in assay [11]; -0.0717 in assay [12]; 0.0194 in [13]; -0.0218 in assay [14]; -0.0404 in [15]; -0.0517 in assay [16]. The Bliss excess in assay [17] is -0.0913; in assay [18], -0.0303.
Consider `CC1(C)CCC(CN2CCN(c3ccc(C(=O)NS(=O)(=O)c4ccc(NCC5CCOCC5)c([N+](=O)[O-])c4)c(Oc4cnc5[nH]ccc5c4)c3)CC2)=C(c2ccc(Cl)cc2)C1` [Venetoclax] + C[C@@H](Nc1cc(F)cc(F)c1)c1cc(C(=O)N(C)C)cc2c(=O)cc(N3CCOCC3)oc12 [AZD8186] (first compound max 1 µM, 7x7, partner max 3 µM), for which the Bliss excess in [1] is 0.0073; in [2], -0.0241; in assay [3] it was -0.0336; in assay [4] it was -0.0118; in assay [5], -0.0168; in [6], -0.0195. Further, the Bliss excess was 0.0007 in the assay on KS-1 (Glioblastoma); -0.0358 in [7]; -0.0243 with LOXIMVI (Melanoma); 0.0163 in assay [8]; -0.0408 in [9]; 0.0298 in [10]. Moreover, the Bliss excess was -0.0166 in [11]; -0.0495 in [12]; -0.0332 in assay [13]; 0.009 in assay [14]; -0.0826 in assay [15]; -0.0558 in assay [16]. The Bliss excess in assay [17] is 0.0209; in [18], -0.048.
In the case of `CC1(C)CCC(CN2CCN(c3ccc(C(=O)NS(=O)(=O)c4ccc(NCC5CCOCC5)c([N+](=O)[O-])c4)c(Oc4cnc5[nH]ccc5c4)c3)CC2)=C(c2ccc(Cl)cc2)C1` [Venetoclax] + Cc1cc2ncnn2cc1Nc1ncc2c(n1)n(C1CCOCC1)c(=O)n2C [AZD7648] (first compound max 1 µM, 7x7, partner max 10 µM), the Bliss excess in [1] is 0.0017; in assay [2], 0.0043; in assay [3], -0.0205; in [4] it was -0.0501; in [5], -0.0156; in assay [6], 0.0019. The Bliss excess was -0.0296 with KS-1 (Glioblastoma); -0.0128 in assay [7]; -0.0277 in the assay on LOXIMVI (Melanoma); -0.0228 in [8]; -0.0256 in assay [9]; -0.0714 in assay [10]. For the same compound, the Bliss excess is -0.0076 in assay [11]; -0.075 in assay [12]; -0.0055 in assay [13]; -0.0396 in assay [14]; -0.0217 in [15]; -0.043 in [16]. The Bliss excess in [17] was -0.082; in assay [18] it was -0.0143.
Consider `CC1(C)CCC(CN2CCN(c3ccc(C(=O)NS(=O)(=O)c4ccc(NCC5CCOCC5)c([N+](=O)[O-])c4)c(Oc4cnc5[nH]ccc5c4)c3)CC2)=C(c2ccc(Cl)cc2)C1` [Venetoclax] + Cn1cnc2c(F)c(Nc3ccc(Br)cc3Cl)c(C(=O)NOCCO)cc21 [Selumetinib] (first compound max 1 µM, 7x7, partner max 3 µM), for which the Bliss excess is -0.0315 in assay [1]; -0.0292 in assay [2]; -0.0516 in [3]; -0.0393 in assay [4]; -0.0232 in assay [5]; 0.0022 in assay [6]. The Bliss excess with KS-1 (Glioblastoma) is 0.0043; in assay [7], -0.028; with LOXIMVI (Melanoma), -0.0228; in assay [8], 0.0653; in assay [9] it was -0.0681; in assay [10], -0.0467. The Bliss excess in [11] is 0.0044; in assay [12] it was -0.069; in [13] it was -0.0533; in assay [14], -0.0052; in assay [15] it was -0.0134; in [16] it was -0.0542. In addition, the Bliss excess in assay [17] was -0.131; in [18] it was -0.0474.
